Assay results as given in ChEMBL document CHEMBL4732252, “Generating Selective Leads for Mer Kinase Inhibitors-Example of a Comprehensive Lead-Generation Strategy” (J Med Chem, 2021).

Key:
[1] = biological target: Tyrosine-protein kinase receptor UFO (Homo sapiens) (UniProt P30530); test: (§1) Inhibition of GST-tagged AXL (unknown origin) (464 to 485 residues) at 1 uM using Axltide (CKKSRGDYMTMQJG-acid) peptide as substrate preincubated for 30 mins followed by substrate and ATP addition at Km concentration measured after 180 mins by RapidFire LC-MS analysis relative to control; details: time 210.0 min
Sequence of Tyrosine-protein kinase receptor UFO (Homo sapiens) (P30530 whole entry, the tested form may be a part): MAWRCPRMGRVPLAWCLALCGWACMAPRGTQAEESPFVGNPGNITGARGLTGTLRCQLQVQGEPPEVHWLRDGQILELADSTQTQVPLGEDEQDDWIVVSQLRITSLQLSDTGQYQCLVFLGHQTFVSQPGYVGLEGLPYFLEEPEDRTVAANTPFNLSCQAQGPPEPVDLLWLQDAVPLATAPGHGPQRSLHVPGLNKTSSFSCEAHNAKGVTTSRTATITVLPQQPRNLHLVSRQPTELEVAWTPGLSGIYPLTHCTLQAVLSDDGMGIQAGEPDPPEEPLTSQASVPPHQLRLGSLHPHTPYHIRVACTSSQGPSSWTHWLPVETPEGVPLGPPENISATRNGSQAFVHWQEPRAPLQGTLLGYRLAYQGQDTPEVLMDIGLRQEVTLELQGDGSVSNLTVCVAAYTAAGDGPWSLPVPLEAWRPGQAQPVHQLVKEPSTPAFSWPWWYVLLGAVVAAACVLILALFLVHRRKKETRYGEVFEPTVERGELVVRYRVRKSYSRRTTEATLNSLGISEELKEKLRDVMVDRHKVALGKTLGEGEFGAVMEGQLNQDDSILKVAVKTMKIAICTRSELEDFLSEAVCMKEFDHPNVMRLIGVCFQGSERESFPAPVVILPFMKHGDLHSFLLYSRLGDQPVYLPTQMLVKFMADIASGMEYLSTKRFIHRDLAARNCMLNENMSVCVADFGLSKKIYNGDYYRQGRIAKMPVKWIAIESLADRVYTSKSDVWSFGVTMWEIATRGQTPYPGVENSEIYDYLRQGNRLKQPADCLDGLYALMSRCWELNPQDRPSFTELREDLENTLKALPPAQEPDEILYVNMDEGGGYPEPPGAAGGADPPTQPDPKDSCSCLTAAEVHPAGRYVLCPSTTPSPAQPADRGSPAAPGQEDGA

[2] = biological target: T1, Tyrosine-protein kinase Mer (Homo sapiens) (UniProt Q12866); test: as §1, with “6His/thrombin cleavage site-fused Avi-tagged dephosphorylated MER” for “GST-tagged AXL”, “(R528” for “(464”, “M999” for “485”, “120” for “180”; details: time 150.0 min
T1 sequence (whole entry): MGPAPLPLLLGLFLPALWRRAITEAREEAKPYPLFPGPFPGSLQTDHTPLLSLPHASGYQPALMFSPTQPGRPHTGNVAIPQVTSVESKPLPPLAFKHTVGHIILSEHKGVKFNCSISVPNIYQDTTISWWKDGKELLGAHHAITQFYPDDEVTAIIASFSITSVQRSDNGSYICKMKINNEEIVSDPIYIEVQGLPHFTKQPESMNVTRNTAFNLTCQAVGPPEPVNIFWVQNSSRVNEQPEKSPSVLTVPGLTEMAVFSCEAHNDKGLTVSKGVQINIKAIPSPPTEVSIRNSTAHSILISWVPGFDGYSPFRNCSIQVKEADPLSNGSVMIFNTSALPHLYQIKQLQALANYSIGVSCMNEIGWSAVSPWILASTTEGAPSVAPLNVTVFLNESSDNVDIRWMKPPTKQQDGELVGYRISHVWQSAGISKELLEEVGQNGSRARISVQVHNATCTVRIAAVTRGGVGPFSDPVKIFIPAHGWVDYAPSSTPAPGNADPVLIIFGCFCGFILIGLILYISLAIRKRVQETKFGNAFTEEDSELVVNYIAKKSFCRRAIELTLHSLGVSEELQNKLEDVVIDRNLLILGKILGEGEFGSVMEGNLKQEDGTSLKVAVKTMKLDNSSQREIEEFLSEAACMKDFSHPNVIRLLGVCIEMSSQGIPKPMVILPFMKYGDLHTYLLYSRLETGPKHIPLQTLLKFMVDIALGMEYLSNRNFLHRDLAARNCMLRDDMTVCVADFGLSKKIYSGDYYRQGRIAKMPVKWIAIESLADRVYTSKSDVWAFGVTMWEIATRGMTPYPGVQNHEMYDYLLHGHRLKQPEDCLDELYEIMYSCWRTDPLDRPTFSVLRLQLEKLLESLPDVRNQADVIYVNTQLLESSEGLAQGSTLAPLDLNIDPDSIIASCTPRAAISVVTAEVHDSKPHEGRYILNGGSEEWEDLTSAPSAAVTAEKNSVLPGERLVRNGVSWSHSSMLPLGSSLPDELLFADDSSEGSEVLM

Question: How did the inhibition [1] turn out when CNC(=O)c1sc(N2CC3CC2(CNC(=O)c2c[nH]c4ncc(Cl)cc24)C3)nc1C(F)(F)F was run?
Answer: The inhibition was > 75%.

Question: What about the inhibition [2] of the same compound?
Answer: Its inhibition is > 75%.
